Source: patent US20090270508A1, “GluR2 receptor modulators” (priority 2007, published 2009)
Each block holds one compound with its values, some of them ahead of it.

How the values were obtained:
[1] = target: T1, GluR2 receptor (Rattus norvegicus, UniProt P19491); test: Electrophysiologic studies in GluR2 expressing oocytes (I/Imax versus concentration); assay type: cell-based; conditions: cells expressing the GluR2 receptor, FIG. 16A-D
T1 construct: expressed in transfected cells; host or cells: Xenopus laevis oocytes
T1 sequence (P19491 22-883): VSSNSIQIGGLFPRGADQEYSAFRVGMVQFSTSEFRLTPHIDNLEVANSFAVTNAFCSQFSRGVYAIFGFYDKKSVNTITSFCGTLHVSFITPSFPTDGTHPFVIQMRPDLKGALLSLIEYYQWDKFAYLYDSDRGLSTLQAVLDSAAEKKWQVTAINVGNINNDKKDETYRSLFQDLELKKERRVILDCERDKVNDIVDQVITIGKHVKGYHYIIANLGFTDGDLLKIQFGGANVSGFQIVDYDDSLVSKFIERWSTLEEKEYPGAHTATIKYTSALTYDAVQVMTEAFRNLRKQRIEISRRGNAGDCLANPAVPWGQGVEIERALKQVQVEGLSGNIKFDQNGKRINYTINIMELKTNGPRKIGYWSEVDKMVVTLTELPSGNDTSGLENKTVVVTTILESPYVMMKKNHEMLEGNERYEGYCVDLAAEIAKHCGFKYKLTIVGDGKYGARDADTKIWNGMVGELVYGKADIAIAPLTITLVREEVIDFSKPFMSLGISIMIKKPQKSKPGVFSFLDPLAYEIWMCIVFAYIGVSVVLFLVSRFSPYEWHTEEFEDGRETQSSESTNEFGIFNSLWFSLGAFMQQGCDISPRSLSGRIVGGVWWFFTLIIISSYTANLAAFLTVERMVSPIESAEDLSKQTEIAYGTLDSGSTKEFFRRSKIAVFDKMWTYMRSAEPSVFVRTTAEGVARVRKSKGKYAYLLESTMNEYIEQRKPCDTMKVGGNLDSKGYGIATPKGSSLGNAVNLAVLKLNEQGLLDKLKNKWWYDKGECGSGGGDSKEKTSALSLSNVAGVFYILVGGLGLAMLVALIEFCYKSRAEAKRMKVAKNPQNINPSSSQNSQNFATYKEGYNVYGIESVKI
Method: FIG. 16A-E. Electrophysiologic studies comparing N,N′-(2R,2′R)-2,2′-(biphenyl-4,4′-diyl)bis(propane-2,1-diyl)dipropane-2-sulfonamide) with LY451646. A. Microamperes of current over various periods of time in a GluR2 expressing oocyte (Xenopus laevis oocyte with microinjected rat GluR2 receptor-encoding mRNA), exposed to various concentrations (0.001 μM, 0.01 μM, 0.1 μM and 1 μM) of N,N′-(2R,2′R)-2,2′-(biphenyl-4,4′-diyl)bis(propane-2,1-diyl)dipropane-2-sulfonamide). B. Microamperes of current over various periods of time in a GluR2 expressing oocyte exposed to various concentrations (0.001 μM, 0.01 μM, 0.1 μM, 1 μM and 10 μM) of LY451646. C. In an oocyte expressing GluR2, ratio of current/maximal current (I/Imax) versus concentration of N,N′-(2R,2′R)-2,2′-(biphenyl-4,4′-diyl)bis(propane-2,1-diyl)dipropane-2-sulfonamide). D. In an oocyte expressing GluR2, ratio of current/maximal current (I/Imax) versus concentration of LY451646. E. N,N′-(2R,2′R)-2,2′-(biphenyl-4,4′-diyl)bis(propane-2,1-diyl)dipropane-2-sulfonamide).

[2] = system: locomotor activity; test: Amphetamine-induced locomotor activity in activity chambers; assay type: in vivo; conditions: mice, 1 mg/kg and 3 mg/kg i.p.
Method: FIG. 17. Effect of N,N′-(2R,2′R)-2,2′-(biphenyl-4,4′-diyl)bis(propane-2,1-diyl)dipropane-2-sulfonamide) on locomotor activity in the context of various doses of amphetamine.
Mice (male, 8 weeks of age; 129S6/SvEv from Taconic) were housed in groups of five for one week. Animals were injected (i.p.) with either vehicle (diluent:saline at a ratio of 3:50 v/v), or one of two doses of GR341 (1 mg/kg and 3 mg/kg). After 15 minutes, animals were injected (i.p.) either with saline or Amphetamine at 3 mg/kg. Mice were held individually without food or water for an additional 15 minutes and then placed in Plexiglas activity chambers (model ENV-520; Med Associates, St. Albans, Vt.) (43.2 cm long×43.2 cm wide×30.5 cm high) to assess locomotor activity. Mice were placed into the center of the open field, and activity was recorded for 30 minutes with subtotals for 5-minute increments. Testing was performed in darkness to minimize anxiety.

[3] = system: AMPA; conditions: rat, glucose utilization and c-fos expression, Fowler et al., 2004; cited from earlier work
[4] = target: GluR2 Flip splice variant (Homo sapiens, UniProt P42262); conditions: by decreasing desensitization, Quirk and Nisenbaum, 2003; cited from earlier work
Chain of GluR2 Flip splice variant (P42262 22-883 isoform P42262-2 limits assumed): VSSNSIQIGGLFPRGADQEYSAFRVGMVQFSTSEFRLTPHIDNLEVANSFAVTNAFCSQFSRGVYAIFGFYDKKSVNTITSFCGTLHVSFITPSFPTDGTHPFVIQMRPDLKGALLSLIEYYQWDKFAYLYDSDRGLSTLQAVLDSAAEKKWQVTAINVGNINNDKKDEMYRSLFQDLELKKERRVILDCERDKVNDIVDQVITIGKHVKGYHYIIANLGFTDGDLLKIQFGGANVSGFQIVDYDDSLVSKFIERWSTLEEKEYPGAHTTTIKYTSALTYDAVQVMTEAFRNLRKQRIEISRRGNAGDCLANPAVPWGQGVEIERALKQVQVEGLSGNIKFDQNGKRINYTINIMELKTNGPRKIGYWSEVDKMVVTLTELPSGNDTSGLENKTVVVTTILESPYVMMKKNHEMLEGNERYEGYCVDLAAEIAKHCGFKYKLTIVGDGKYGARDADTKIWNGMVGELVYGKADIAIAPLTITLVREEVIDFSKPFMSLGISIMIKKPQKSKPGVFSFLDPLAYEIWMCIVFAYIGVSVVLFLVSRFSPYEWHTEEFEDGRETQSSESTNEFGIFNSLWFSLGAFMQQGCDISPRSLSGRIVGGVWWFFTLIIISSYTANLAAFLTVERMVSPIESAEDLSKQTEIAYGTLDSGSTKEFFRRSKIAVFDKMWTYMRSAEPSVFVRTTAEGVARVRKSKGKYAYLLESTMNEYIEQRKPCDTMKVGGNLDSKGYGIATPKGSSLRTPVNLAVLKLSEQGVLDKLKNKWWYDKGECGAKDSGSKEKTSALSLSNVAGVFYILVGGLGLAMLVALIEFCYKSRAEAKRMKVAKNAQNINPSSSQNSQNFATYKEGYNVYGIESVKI

[5] = system: rat model of Parkinson's disease; conditions: O'Neil et al., 2004; cited from earlier work
[6] = system: Delta ATD GluR2; test: Two electrode voltage clamp (TEVC) recording of glutamate currents in oocytes; assay type: cell-based; conditions: glutamate plus compound versus glutamate alone, FIG. 3
From the text: FIG. 3. LY451646 potentiates glutamate currents from Delta ATD GluR2 as measured by TEVC in oocytes. The top tracing represents application of glutamate alone, the bottom tracing glutamate plus LY451646.
(§1) LY451646 is an […] of GluR2. […] The top tracing represents application of glutamate alone, the bottom tracing glutamate plus LY451646. […] In the absence of LY451646, the amount of dimerized GluR2 barely rises above baseline (FIG. 4A). With the addition of LY451646, dimers overtake monomers (FIG. 4B).

[7] = target: GluR2 S1S2 (Rattus norvegicus, UniProt P19491, DEL528-650/N775S/S652T/V651G); test: Dimerization of GluR2 S1S2; conditions: FIG. 4A-B
Chain of GluR2 S1S2 (P19491 with tags, fused parts or gaps DEL528-650/V651G/S652T/N775S): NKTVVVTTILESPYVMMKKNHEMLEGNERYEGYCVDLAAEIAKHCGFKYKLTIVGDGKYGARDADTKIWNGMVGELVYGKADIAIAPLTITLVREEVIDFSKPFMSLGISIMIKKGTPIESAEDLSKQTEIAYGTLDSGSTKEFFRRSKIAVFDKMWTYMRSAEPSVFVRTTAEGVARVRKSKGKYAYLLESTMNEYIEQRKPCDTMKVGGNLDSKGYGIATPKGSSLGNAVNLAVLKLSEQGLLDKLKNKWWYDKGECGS
From the text: (A) GluR2 alone; (B) GluR2S1S2 in the presence of LY451646.
as §1

[8] = system: despair; conditions: Bai et al., 2001; cited from earlier work
[9] = system: hippocampal cell proliferation; conditions: rats, Bai et al., 2003; cited from earlier work
[10] = target: GluR21 receptors (Rattus norvegicus, UniProt P19491); test: Whole-cell recording, potentiation of steady-state glutamate-induced currents; assay type: cell-based; conditions: whole-cell mode (−60 mV), 1 mM glutamate
Chain of GluR21 receptors (P19491 22-883 isoform P19491-2 limits assumed): as the sequence (P42262 22-883 isoform P42262-2 limits assumed) above, with M170T, T270A, R743G, A831P counted along it
Method: FIG. 18. (A) Potentiation of steady-state glutamate-induced currents for GluR2; receptors and (B) % current potentiation bar graph.
Potentiation of steady-state glutamate-induced currents for GluR21 receptors by N,N′-(2S,2′S)-2,2′-(biphenyl-4,4′-diyl)bis(2-fluoropropane-2,1-diyl)dipropane-2-sulfonamide).
The recordings are in whole-cell mode (−60 mV) and show inward currents elicited by 1 mM glutamate in the presence of various concentrations of N,N′-(2S,2′S)-2,2′-(biphenyl-4,4′-diyl)bis(2-fluoropropane-2,1-diyl)dipropane-2-sulfonamide).

EC50 [1]: 12.7 ± 0.6 nM
SMILES: CC(C)S(=O)(=O)NC[C@H](C)c1ccc(-c2ccc([C@@H](C)CNS(=O)(=O)C(C)C)cc2)cc1 [GR341]
effect on amphetamine-induced locomotor activity ([2]; amphetamine 3 mg/kg i.p., 30 minutes, FIG. 17): inhibited amphetamine-induced locomotor activity
effect of the compound alone on locomotor activity ([2]; saline instead of amphetamine): no significant effect

SMILES: CC(CNS(=O)(=O)C(C)C)c1ccc(-c2ccc(C#N)cc2)cc1 (centres unmarked) [LY404187, R,S—N-2-(4-(4-Cyanophenyl)phenyl)propyl 2-propanesulfonamide]
glutamate dependent AMPA stimulation of the brain [3]: increases glutamate dependent AMPA stimulation
receptor's response to glutamate [4]: potentiate the receptor's response to glutamate
neurotrophic effect [5]: exhibit a neurotrophic effect

SMILES: CC(C)S(=O)(=O)NC[C@H](C)c1ccc(-c2ccc(C#N)cc2)cc1 [LY451646]
effect on glutamate currents [6]: potentiate glutamate currents
dimerization of GluR2 S1S2 [7]: promotes dimerization
EC50 [1]: 130 ± 16 nM
"despair" in the FST and TST [8]: reduce “despair”
hippocampal cell proliferation [9]: increase hippocampal cell proliferation

saturating concentration [10]: 200 nM
effect on glutamate receptor currents ([10]; FIG. 18): potentiates glutamate receptor currents
EC50 ([10]; FIG. 18B, approximately half saturating concentration): ~50 nM
SMILES: CC(C)S(=O)(=O)NC[C@@](C)(F)c1ccc(-c2ccc([C@](C)(F)CNS(=O)(=O)C(C)C)cc2)cc1 [N,N′-(2S,2′S)-2,2′-(biphenyl-4,4′-diyl)bis(2-fluoropropane-2,1-diyl)dipropane-2-sulfonamide)]
